Assay results: US12190997B2, “Genetically altered LysM receptors with altered agonist specificity and affinity” (Aarhus Universitet, priority 2018, dated 2025)

What was measured:
HvRLK10 ectodomain = assay: BLI binding of HvRLK10 ectodomain to ligands; set-up: species or system Hordeum vulgare; conditions: FIGS. 16A, 16C-16D
Description: (§1) Expression and purification of ectodomain: The HvRLK10 ectodomain (residues 25-231; SEQ ID NO:66) was codon-optimized for insect cell expression (Genscript, Piscataway, USA) and cloned into the pOET4 baculovirus transfer vector (Oxford Expression Technologies). The native HvRLK10 signal peptide was replaced with the gp64 signal peptide (SEQ ID NO:59) to facilitate secretion and a hexa-histidine (6×HIS; SEQ ID NO:61) tag was added to the C-terminus (HvRLK10-ecto (25-231), N-term gp64, C-term 6His=SEQ ID NO:65). The HvRLK4 ectodomain (residues 27-228; SEQ ID NO:68) was codon-optimized for insect cell expression (Genscript, Piscataway, USA) and cloned into the pOET4 baculovirus transfer vector (Oxford Expression Technologies). […]
(§2) Biolayer interferometry (BLI): Binding of HvRLK10 ectodomain or HvRLK4 ectodomain to ligands was measured on an Octet RED 96 system (Pall ForteBio). […] Equilibrium dissociation constants derived from the steady-state were determined by applying a non-linear regression (one site, specific binding) to the response at equilibrium plotted against the protein concentration. Kinetic parameters were determined by non-linear regression (association followed by dissociation) on the subtracted data.

[1] = system: ectodomain where LysM2 from LjLYS11 was replaced with LysM2 from LjNFR5; assay: BLI binding of LjLYS11 ectodomain with LysM2 replaced by LysM2 from LjNFR5; set-up: species or system Lotus japonicus; conditions: FIG. 15D
Description: Biolayer interferometry (BLI): Binding of LjLYS11 ectodomain and domain-swapped versions of LjLYS11 ectodomain to ligands was measured on an Octet RED 96 system (Pall ForteBio). The ligands used were CO5 chitin oligomer (corresponding to the backbone of S. meliloti LCO-V), M. loti LCO, and S. meliloti LCO. S. meliloti LCO consists of a tetrameric/pentameric N-acetylglucosamine backbone that is O-sulfated on the reducing terminal residue, O-acetylated on the non-reducing terminal residue, and mono-N-acylated by unsaturated C16 acyl groups. M. loti LCO is a pentameric N-acetylglucosamine with a cis-vaccenic acid and a carbamoyl group at the non-reducing terminal residue together with a 2,4-O-acetylfucose at the reducing terminal residue. Biotinylated ligand conjugates were immobilized on streptavidin biosensors (kinetic quality, Pall ForteBio) at a concentration of 125-250 nM for 5 minutes. Data analysis was performed in GraphPad Prism 6 software (GraphPad Software, Inc.). Equilibrium dissociation constants derived from the steady-state were determined by applying a non-linear regression (one site, specific binding) to the response at equilibrium plotted against the protein concentration. Kinetic parameters were determined by non-linear regression (association followed by dissociation) on the subtracted data. […]

HvRLK4 ectodomain = assay: BLI binding of HvRLK4 ectodomain to ligands; set-up: species or system Hordeum vulgare; conditions: FIGS. 16E, 16G-16H
Description: as §1, §2

LjLYS11 ectodomain = LjLYS11 ectodomain (Lotus japonicus, UniProt D3KTZ8); assay: BLI binding of LjLYS11 ectodomain to ligands; conditions: FIG. 15C
Description: LjLYS11 ectodomain production and purification: The LjLYS11 ectodomain (residues 26-234; SEQ ID NO:60) was codon-optimized for insect cell expression (Genscript, Piscataway, USA) and cloned into the pOET4 baculovirus transfer vector (Oxford Expression Technologies). The native LjLYS11 signal peptide was replaced with the gp64 signal peptide (SEQ ID NO:59) to facilitate secretion and a hexa-histidine (6×His; SEQ ID NO:61) tag was added to the C-terminus (LjLYS11-ecto (26-234), N-term gp64, C-term 6His=SEQ ID NO:56). Recombinant baculoviruses were produced in Sf9 cells (Spodoptera frugiperda) using the FlashBac Gold kit (Oxford Expression technologies) according to the manufacturer's instructions with Lipofectin (ThermoFisher Scientific) as a transfection reagent. Protein expression was performed as follows. […]
as §2, with “LjLYS11” for “HvRLK10”, “and domain-swapped versions of LjLYS11” for “or HvRLK4”, “data. […]” for “data.”

Sequence of LjLYS11 ectodomain (D3KTZ8 entry or part of it): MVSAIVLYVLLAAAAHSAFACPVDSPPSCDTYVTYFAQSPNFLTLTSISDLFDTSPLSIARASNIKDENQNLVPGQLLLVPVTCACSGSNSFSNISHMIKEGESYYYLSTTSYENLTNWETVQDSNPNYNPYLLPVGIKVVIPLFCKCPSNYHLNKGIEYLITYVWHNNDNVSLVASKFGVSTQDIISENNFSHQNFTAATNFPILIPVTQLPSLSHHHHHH

CC(=O)N[C@H]1[C@H](O[C@H]2[C@H](O)[C@@H](NC(C)=O)[C@H](O[C@H]3[C@H](O)[C@@H](NC(C)=O)C(O)O[C@@H]3CO)O[C@@H]2CO)O[C@H](CO)[C@@H](O[C@@H]2O[C@H](CO)[C@@H](O[C@@H]3O[C@H](CO)[C@@H](O)[C@H](O)[C@H]3NC(C)=O)[C@H](O)[C@H]2NC(C)=O)[C@@H]1O (stereo partly shown) [CO5]
binding (HvRLK10 ectodomain): did not bind | binding compared with unmodified LjLYS11 ectodomain [1]: loss of ability to bind | binding (HvRLK4 ectodomain): did not bind | binding (LjLYS11 ectodomain): able to bind
